Source: paper PMC12040169 (PLOS Biology, 2025)

Experiment: in vitro
Settings: human, hela cells
[1] = % viability, bulk resorufin, single well

SMILES | viability at 28.5 h, 10 µM (% viability) | further results
Cc1ccn(-c2ccc(N3CCOC4(CCCC4)C3)nn2)n1 [CBK305262] | 87.9% | 
O=C(c1cccnc1)N1CCC(c2cccc(Cc3ccc(C(F)(F)F)cc3)n2)CC1 [CBK286222] | 95.4% | 
Cc1[nH]c2ccccc2c1-c1csc(-c2ccncc2)n1 [CBK264371] | 96.8% | 
C[C@H](Nc1nc(-c2ccc(-c3ccccc3)cc2)cnc1N)c1ccccc1 [CBK063760] | 93.5% | 
CC1NC(C(=O)O)Cc2c1[nH]c1ccccc21 (centres unmarked) [CBK218664] | 102% | 
CC(=O)Nc1ccc(-c2ccc(C(=O)NCc3ccc(OC(F)(F)F)cc3)cn2)cc1 [CBK158830] | 98.6% | 
Cc1cccnc1NC(=O)c1cc(O)nc2ccccc12 [CBK300499] | 91.6% | 
Cc1nc(CC(=O)Nc2ccc(N3CCOCC3)cn2)cs1 [CBK305251] | 91% | 
CN(CCN1CCCCC1)C(=O)C1Cc2cc(Cl)ccc2O1 (centres unmarked) [CBK282640] | 95.4% | 
O=C(O)CC(C(=O)Nc1ccccc1)N1CCOCC1 (centres unmarked) [CBK287182] | 94.8% | 
CCC(C)c1ccc(NC(=O)c2cccnc2)cc1 (centres unmarked) [CBK057967] | 85.9% | 
COC(=O)c1cn([C@H]2CO[C@H]3[C@@H]2OC[C@H]3O)nn1 [CBK289491] | 87.5% | 
O=C(NCCc1ccc(F)cc1)C1CN(C(=O)c2ccc3nsnc3c2)C1 [CBK285690] | 95.8% | 
Cc1nc2sc(C(=O)OCc3cc(=O)oc4cc5c(cc34)CCC5)c(C)c2c(=O)[nH]1 [CBK297528] | 114% | 
Cc1nnc(SCC(=O)N2CCN(c3ccc(Cl)cc3)CC2)s1 [CBK307389] | 87.5% | 
Cc1cc(NC(=O)C(=O)NC(C)c2ccccc2)ccc1Br (centres unmarked) [CBK267084] | 96.3% | 
CS(=O)(=O)c1ccc(-c2nccnc2N2CCCCC2CO)cc1 (centres unmarked) [CBK037657] | 102% | 
Cc1ccc(S(=O)(=O)NC(=O)c2cc(C)n(-c3ccc(N(C)C)cc3)c2C)cc1 [CBK296085] | 92.9% | 
NCCC(=O)N(CCc1cc(C(F)(F)F)cc(C(F)(F)F)c1)c1ccc(Oc2ccccc2)cc1 [CBK002998T] | 97.7% | 
CC(C)(C)c1ccc(OCC(O)CNS(=O)(=O)O)cc1 (centres unmarked) [CBK261169N] | 102% | 
CCC(CC)C(=O)N1CCn2c(nnc2-c2cncc(Br)c2)C1 [CBK304409] | 96.1% | 
O=C(CNS(=O)(=O)c1ccc(Br)cc1)NCc1cccnc1 [CBK266295] | 97.2% | 
CCN(CC(=O)NCc1ccc(Cl)cc1)S(=O)(=O)N1CCCCCC1 [CBK305733] | 110% | 

SMILES | viability at 28.5 h, 10 µM (% viability) | further results
COc1ccc(S(=O)(=O)Nc2nccnc2-c2ccc(CN3C(=O)CCC3=O)cc2)cc1 [CBK050699] | 110% | 
Cc1cc(C)c2c(C)nn(-c3ccc(C(=O)O)cc3)c2n1 [CBK267480] | 89.6% | 
COc1ccc(CNC(=O)CSc2nnc(-c3ccncc3)n2C)cc1 [CBK266613] | 95% | 
O=C(Cn1cc(C(=S)N2CCOCC2)c2ccccc21)Nc1ccc2c(c1)OCO2 [CBK266703] | 94.6% | 
O=C(c1ccco1)N1CCN(S(=O)(=O)c2ccc(Cl)cc2)CC1 [CBK068411] | 104% | 
O=C(CC1c2ccccc2Oc2ccccc21)Nc1ccc(Cc2ccncc2)cc1 [CBK263271] | 91.6% | 
Cc1ccc(-n2c(C)c([N+](=O)[O-])c3ccc(O)cc32)cc1 [CBK094246] | 86.2% | 
Cc1ccccc1C(NC(=O)C1CCN(C/C=C/c2ccccc2)CC1)c1ncccc1C (centres unmarked) [CBK147980] | 102% | 
Cc1ccc(-c2nccnc2OCc2ccc3c(c2)OCO3)c(C)c1 [CBK106982] | 93.1% | 
O=C1CC(N2CCN(Cc3ccc4c(c3)OCO4)CC2)C(=O)N1CCc1ccccc1 (centres unmarked) [CBK074541] | 93.7% | 
O=C(NS(=O)(=O)c1ccccc1)c1ccccc1 [CBK288429] | 88.2% | 
CCOC(=O)c1cnc(C2CC2)nc1NCc1cccc(C)c1C [CBK114707] | 102% | 
Cc1ccccc1-c1noc(CSc2nnc(-c3ccncc3)n2-c2ccc(F)cc2)n1 [CBK269089] | 96.8% | 
CCOC(=O)N1CCC(NS(=O)(=O)c2cccc3cccnc23)CC1 [CBK045453] | 90.6% | 
Cc1ccc(C(=O)O)cc1NC(=O)CSc1nc2scc(C3CC3)c2c(=O)n1-c1ccccc1 [CBK297481] | 107% | 
O=C1NC(=O)N(c2ccc(O)cc2)C(=O)/C1=C/c1cc(Cl)c(OCc2ccccc2)c(Cl)c1 [CBK265385] |  | viability at 28.5 h, 10 µM [1]: 78.1%
CC(C)C(=O)N1CCC(n2c(=O)oc3ccc(Cl)cc32)CC1 [CBK284339] | 79.9% | 
Cc1ccc(-c2nnc(CNC(=O)c3cccc(Cl)c3)o2)s1 [CBK284646] | 79.1% | 
COc1cccc(OC)c1OCCN1CCC(C(=O)NC(c2ccccc2)c2ccccn2)CC1 (centres unmarked) [CBK148419] | 96.3% | 
c1cc(-c2cncc(-c3ccsc3)n2)cs1 [CBK113356] | 95.7% | 
CSCCCNC(=O)N1CCCC(C(=O)O)C1 (centres unmarked) [CBK161343] | 92.1% | 
O=C(O)CN1C(=O)CC2(C1=O)C(=O)N(Cc1ccccc1)c1ccccc12 (centres unmarked) [CBK076093] | 116% | 
CN(C)CCN(C)C(=O)c1ccc(-c2cc(C(F)(F)F)cc(C(F)(F)F)c2)nc1N(C)C [CBK106069] | 97% | 

SMILES | viability at 28.5 h, 10 µM (% viability) | further results
COc1cccc(Oc2nccnc2-c2ccc3c(c2)OCO3)c1 [CBK106704] | 94.9% | 
CCNc1cccnc1N(CC)C1CCN(C(=O)c2cc3cc4c(cc3[nH]2)OCO4)CC1 [CBK016815] | 111% | 
O=C(Nc1ccc2ncccc2c1)c1ccc(F)c(F)c1 [CBK159810] | 78.5% | 
O=C(Cc1ccccc1)N1CCN(C(=O)c2ccco2)CC1 [CBK068325] | 93.4% | 
O=S(=O)(NCc1cccc(F)c1)c1ccc(OC(F)(F)F)cc1 [CBK043379] | 88.5% | 
C[C@H](c1ccccc1)n1c(=O)[nH]c2ncc(-c3ccc(C(=O)N4CCN(C)CC4)cc3)nc21 [CBK064559] | 101% | 
CCN1CC2(CCNCC2)c2ccccc21 [CBK116520] | 90.4% | 
OC(CN1CCC(O)(Cn2cnc3ccccc32)CC1)c1ccc(-c2ccccc2)cc1 (centres unmarked) [CBK286437] | 89% | 
COc1cc(C)nc(NC(=O)Nc2cccc(Cl)c2)n1 [CBK269828] | 94.2% | 
Cc1cc(C)c2c(N)c(C(=O)Nc3ccc(Br)cc3)sc2n1 [CBK072019] | 108% | 
CCNC(=O)CN(CC)S(=O)(=O)c1cccc(C#N)c1 [CBK306481] | 90.1% | 
c1cnc(NCc2cc3n(n2)CCN(CC2CCCNC2)C3)nc1 (centres unmarked) [CBK306981] | 102% | 
CCN(CC)c1ccc(C(=O)CN2CCN(c3nccnc3OCCN3CCOCC3)CC2)cc1 [CBK082898T] | 97.4% | 
N#Cc1ccc(CNC2(Cc3cc(C(=O)N4CCCCC4)on3)COC2)cc1 [CBK289672] | 87% | 
CC(C)C(NC(=O)CN1CSCC1=O)c1ccc(C(C)(C)C)cc1 (centres unmarked) [CBK297899] | 88.6% | 
O=C(/C=C/c1ccc(N2N=N2)cc1)/C=C/c1ccc(N2N=N2)cc1 [CBK261638] |  | viability at 28.5 h, 10 µM: 105%
O=C(NC1CC1)c1cnoc1-c1ccccc1 [CBK154935] | 106% | 
O=C(Cc1ccccc1)Nc1ccc(Oc2ccc(C(=O)O)c(C(=O)O)c2)cc1 [CBK263611] | 90.3% | 
CN(CC(=O)Nc1ccccc1-c1ccccc1)S(=O)(=O)c1ccc2ccccc2c1 [CBK267432] | 104% | 
COC(=O)c1c(NC(=S)Nc2ccn(C)n2)sc2c1CCCCC2 [CBK266888] | 106% | 
O=C(NCCn1nc2c(cc1=O)CCCCC2)c1ccccc1 [CBK283278] | 85.7% | 
CNC(=S)NCCc1c[nH]c2ccccc12 [CBK264853] | 108% | 
Cc1ccc(S(=O)(=O)N(C)CCCC#N)cc1 [CBK085945] | 106% | 

SMILES | viability at 28.5 h, 10 µM (% viability) | further results
CC(=O)Nc1cccc(-c2cn3ccnc3c(N3CCN(C)CC3)n2)c1 [CBK037930] | 95.2% | 
O=C(CSc1nc(-c2ccco2)cc(C(F)(F)F)n1)NCc1ccco1 [CBK266091] | 95.1% | 
COc1cc(/C=N/NC(=O)CCN2CCN(C)CC2)cc(OC)c1O [CBK261500] | 100% | 
CS(=O)(=O)c1ccc(-c2cnc(N)c(NCC3CCOCC3)n2)cc1 [CBK063849] | 103% | 
OC(CN1CCC(Oc2ccccc2F)CC1)c1cccs1 (centres unmarked) [CBK281433] | 95.2% | 
CO[C@@]12CC[C@@H](O)C[C@@H]1N(C(=O)c1cccc3c1NCCC3)CC2 [CBK306741] | 109% | 
Cc1nn(C)c(N2CCNCC2)c1NC(=O)CN(C)C(=O)c1ccccc1 [CBK050255T] | 109% | 
COc1ccccc1N1C(=O)NC(=O)/C(=C/NCCCO)C1=O [CBK261618] |  | viability at 28.5 h, 10 µM [1]: 87.8%
CC(C)COc1ccccc1C(=O)NCCC(=O)O [CBK033507] | 102% | 
CCCn1cc(NC(=O)C2(c3ccccc3)CCC2)ccc1=O [CBK306237] | 95.4% | 
Cc1cc(C(=O)NCCn2ccnc2C)nc2ccccc12 [CBK281894] | 101% | 
O=C(NC1CCN(CC2(c3ccccc3)CC2)CC1)c1ccco1 [CBK285321] | 83.7% | 
COc1ccc(OC)c(S(=O)(=O)N2CC[C@H]3CC(=O)N(CCN(C)C)CC[C@H]3C2)c1 [CBK288788] | 104% | 
O=S(=O)(Nc1nnn[nH]1)c1ccc(-c2ccon2)s1 [CBK062391] | 97.7% | 
O=C1CCC(=O)N1CCOc1nccnc1OC1CCN(Cc2ccccc2-c2ccccc2)CC1 [CBK084344] | 110% | 
CN(CC(=O)O)C(=O)OCc1ccccc1 [CBK012752] | 101% | 
Cc1ccc2oc(C(=O)N3CCN(CC(=O)N(C)C)CC3)c(C)c2c1 [CBK281423] | 94.2% | 
Cc1ccnc(SCC(=O)c2cc(C)n(C3CC3)c2C)n1 [CBK304686] | 97.6% | 
COc1ccc(CNC(=O)CCn2c(=O)oc3ccccc32)cc1 [CBK270138] | 92.7% | 
C#CCN(C)CC[C@@H]1CC[C@H](O)[C@@H](C(=O)NC(C)C)O1 [CBK288718] | 109% | 
